Data on three compounds can be found in US5231101A, “Benzo[5,6]cyclohepta[1,2-B]pyridine derivatives and antiallergic agents comprising same” (SS Pharmaceutical Co., Ltd., priority 1991, dated 1993).

One series in a line: Acute toxicity. The settings on record: mouse, in vivo; oral, ICR mice. An excerpt:
The invention compound (Compound No. 1) was orally administered to ICR mice.

For the next series, the system named is ddy male mice. Kind of series: Effects on sleeping time (pentobarbital-induced). It is filed as in vivo, mouse (ddy male). As to conditions: 10 mg/kg oral, 1 hour before pentobarbital (50 mg/kg i.p.), n=10, control 46.6 ± 3.8, ** p < 0.01 relative to the control (marked for loratadine only). The method, then: (5) Effects on sleeping time Animals used in groups were ddy male mice, each group consisting of ten mice. After fasted for 24 hours, they were orally administered with a test compound. Upon an elapsed time of 1 hour after the oral administration, pentobarbital (50 mg/kg) was intraperitoneally administered and the sleeping time was measured. Statistical evaluation was performed by one-way analysis of variance, followed by the Turkey test for multiple comparison.

The test system of series [1] is isolated guinea pig ileum. Kind of series: Antiacetylcholinergic action on the isolated guinea pig ileum (acetylcholine-induced contraction). It is filed as cell-based, guinea pig (Hartley male). The settings on record: Cavia porcellus. The procedure:
(§1) After a Hartley male guinea pig was sacrificed under ether anesthesia and exsanguination, the ileum was immediately isolated and a preparation was prepared. The preparation was suspended in a 20 ml Magnus bath containing 32° C. Tyrode solution (95% O2 -5% CO2 saturation) and was placed under resting tension of 1 g. The isometrical changes of the muscular tension produced were recorded on the polygraph through the force displacement transducer.
(2) Antiacetylcholinergic action on the isolated guinea pig ileum

Series [2] relates to histamine-induced dermovascular penetration increase. Kind of series: Effect on histamine-induced dermovascular penetration increase. In kind it is in vivo, guinea pig (5-week old). The settings on record: Cavia porcellus, 0.5 h; oral, 60 minutes before intradermal histamine (1 μg); blue spot area at 30 min; guinea pig; read-out: ID50 (the source's name). The procedure: (4) Effect on histamine-induced dermovascular penetration increase In a shaved dorsal skin of a guinea pig (5-week old), 0.1 ml (1 μg) of histamine was intradermally injected. […] Thirty minutes later, the animal was sacrificed under exsanguination and was evaluated by square of the shortest and the longest diameters of the blue spot (histamine-injected site). Each test compound was orally administered 60 minutes before the injection of histamine.

Series [3] concerns isolated guinea pig ileum. Kind of series: Antihistaminergic action on the isolated guinea pig ileum (histamine-induced contraction). The settings on record: Cavia porcellus. In kind it is cell-based, guinea pig (Hartley male). The procedure: (1) Antihistaminergic action on the isolated guinea pig ileum
as §1

The subject of series [4] is isolated guinea pig ileum. Kind of series: Antihistamine selectivity determined from experiments (1) and (2). In kind it is cell-based. As to conditions: determined from results of experiments (1) antihistaminergic and (2) antiacetylcholinergic action. The procedure:
as §1
(3) Antihistamine selectivity
From the results of the above experiments (1) and (2), the antihistamine selectivity was determined in accordance with the following formula. [formula]

Structures are written as SMILES.

One may read the LD50 as the dose expected to kill half of the subjects tested. In general, IC50 refers to the concentration that gives 50% inhibition. In turn, `CN1CCC(=C2c3ccc(C#N)cc3CCc3cccnc32)CC1` [Compound No. 1, 8-Cyano-11-(1-methyl-4-piperidylidene)-6,11-dihydro-5H-benzo[5,6]-cyclohepta[1,2-b]pyridine] had an LD50 in “Acute toxicity” of 657 mg/kg. Besides, the Sleeping time in the series on ddy male mice came to 62.9 ± 5.8 min. In addition, the IC50 was determined as 48.5 µM in series [1] (vs acetylcholine (3×10^-5 M), isolated guinea pig ileum, read-out: IC50) and 0.0151 µM in series [3] (vs histamine (10^-5 M)-induced contraction, isolated guinea pig ileum, 32° C. Tyrode solution, read-out: IC50). In series [2], the ED50 is 0.012 mg/kg. In series [4], this compound had an Antihistamic selectivity of 3212.
For the compound `CCOC(=O)N1CCC(=C2c3ccc(Cl)cc3CCc3cccnc32)CC1` [Loratadine], the Sleeping time in the series with ddy male mice was 75.7 ± 5.8 min. The 50% inhibitory concentration (IC50) in series [1] was 23.4 µM; in series [3] it was 0.123 µM. In addition, in series [2], the ED50 was found to be 0.534 mg/kg. This compound also yielded an Antihistamic selectivity in series [4] of 190.
For `CC(C)(C)c1ccc(C(O)CCCN2CCC(C(O)(c3ccccc3)c3ccccc3)CC2)cc1` (stereo not drawn) [Terfenadine], in series [2], the ED50 worked out at 3.34 mg/kg.
